Results on 23 molecules are retold here after patent publication US11066369B2, “N-(pyridin-2-yl)pyridine-sulfonamide derivatives and their use in the treatment of disease” (Novartis AG, priority 2016, dated 2021).

Counter-ions that a name gives are not always drawn. Like-named read-outs stand apart in the source and are kept apart here.

The target in the assay is T1, horseradish peroxidase (HRP) tagged delF508-CFTR (Homo sapiens, UniProt P13569, DEL508-508).
T1 construct: expressed in transfected cells
In words: Measurement of delF508-CFTR-HRP surface expression in CFBE41o- cells.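 On DelF508-CFTR-HRP Amax %: percent efficacy relative to reference corrector lumacaftor.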 Type of assay: cell-based. The settings on record: CFBE41o- cells; for Emax: read-out: DelF508-CFTR-HRP Amax %; for EC50: read-out: DelF508-CFTR-HRP EC50. An excerpt: Measurement of delF508-CFTR-HRP Surface Expression in CFBE41o-Cells
This assay quantifies the cell surface expressions of the mutant CFTR channel using an extracellular HRP tag.
A cellular assay was developed to measure surface expression of horseradish peroxidase (HRP) tagged delF508-CFTR in the human bronchial epithelial immortalized CFBE41o-cell line (Phuan, P. W., et al, (2014) Molecular Pharmacology 86:42-51). Specifically, the HRP sequence was inserted into the fourth extracellular loop of delF508-CFTR and stably expressed in CFBE41o-cells. Cells were seeded in 384 well plate at a density of 5000 cells/well and incubated at 37° C. for 12 to 24 hours in medium (Gibco MEM #11095, 10% FBS, 10 mM HEPES, […], 200 μg/mL G418, 3 μg/mL Puromycin). The delF508-CFTR-HRP expression was induced with 500 ng/mL doxycycline (Sigma D-9891, dissolved in H2O and sterile filtered) in medium and the cells were incubated at 37° C. for 48h. Old medium was removed and fresh medium was added containing 500 ng/mL doxycycline and unknown test compound at required test concentration in DMSO, not exceeding 0.5% final DMSO concentration. The highest concentration tested was 10 μM with a 10-point concentration response curve using a 3-fold dilution. After addition of compounds, the cells were incubated for 24h at 37° C. On the final day, cells were washed four times in PBS containing 1 mM MgCl2 and 0.1 mM CaCl2. HRP-Substrate (SuperSignal ELISA Pico, Fisher #37069) 20 μl/well was added and the luminescence signal was determined (Viewlux, Perkin Elmer). Light was emitted upon addition of exogenous HRP-Substrate only when delF508-CFTR-HRP reached the cell surface and the HRP tag was accessible to the HRP-Substrate (note: HRP-Substrate cannot cross the lipid bilayer to reach delF508-CFTR-HRP misfolded within the cell).
The median activity for the lowest concentration of the compounds on each assay plate was calculated and this value was used to normalize the signal for each well on the respective plate. Three replicates at each concentrations for every compound were run to determine one EC50. The median value was determined and used to calculate compound activities as described below. Effective half maximal values (EC50) were calculated for each compound by performing logistic regression on measured dose-response data points using the equation:
[formula] where “Y” is the observed activity, “Bottom” is the lowest observed value, “Top” is the highest observed value, and the “Hill coefficient” gives the largest absolute value of the slope. The curve fitting is carried out by a curve fitting program implemented at GNF using Matlab (Mathworks).
The dose response curves also were used to calculate Fold Change (FC) using the equation: […]
Compound efficacy relative to the reference compound 3-(6-(1-(2,2-difluorobenzo[d][1,3]dioxol-5-yl)cyclopropane-1-carboxamido)-3-methylpyridin-2-yl)benzoic acid was determined using the following formula: […]

[1] abbreviates: delF508-CFTR-HRP surface expression.
Where [2] appears, read: mean of at least two replicates.

T1 sequence (P13569 with tags, fused parts or gaps DEL508-508): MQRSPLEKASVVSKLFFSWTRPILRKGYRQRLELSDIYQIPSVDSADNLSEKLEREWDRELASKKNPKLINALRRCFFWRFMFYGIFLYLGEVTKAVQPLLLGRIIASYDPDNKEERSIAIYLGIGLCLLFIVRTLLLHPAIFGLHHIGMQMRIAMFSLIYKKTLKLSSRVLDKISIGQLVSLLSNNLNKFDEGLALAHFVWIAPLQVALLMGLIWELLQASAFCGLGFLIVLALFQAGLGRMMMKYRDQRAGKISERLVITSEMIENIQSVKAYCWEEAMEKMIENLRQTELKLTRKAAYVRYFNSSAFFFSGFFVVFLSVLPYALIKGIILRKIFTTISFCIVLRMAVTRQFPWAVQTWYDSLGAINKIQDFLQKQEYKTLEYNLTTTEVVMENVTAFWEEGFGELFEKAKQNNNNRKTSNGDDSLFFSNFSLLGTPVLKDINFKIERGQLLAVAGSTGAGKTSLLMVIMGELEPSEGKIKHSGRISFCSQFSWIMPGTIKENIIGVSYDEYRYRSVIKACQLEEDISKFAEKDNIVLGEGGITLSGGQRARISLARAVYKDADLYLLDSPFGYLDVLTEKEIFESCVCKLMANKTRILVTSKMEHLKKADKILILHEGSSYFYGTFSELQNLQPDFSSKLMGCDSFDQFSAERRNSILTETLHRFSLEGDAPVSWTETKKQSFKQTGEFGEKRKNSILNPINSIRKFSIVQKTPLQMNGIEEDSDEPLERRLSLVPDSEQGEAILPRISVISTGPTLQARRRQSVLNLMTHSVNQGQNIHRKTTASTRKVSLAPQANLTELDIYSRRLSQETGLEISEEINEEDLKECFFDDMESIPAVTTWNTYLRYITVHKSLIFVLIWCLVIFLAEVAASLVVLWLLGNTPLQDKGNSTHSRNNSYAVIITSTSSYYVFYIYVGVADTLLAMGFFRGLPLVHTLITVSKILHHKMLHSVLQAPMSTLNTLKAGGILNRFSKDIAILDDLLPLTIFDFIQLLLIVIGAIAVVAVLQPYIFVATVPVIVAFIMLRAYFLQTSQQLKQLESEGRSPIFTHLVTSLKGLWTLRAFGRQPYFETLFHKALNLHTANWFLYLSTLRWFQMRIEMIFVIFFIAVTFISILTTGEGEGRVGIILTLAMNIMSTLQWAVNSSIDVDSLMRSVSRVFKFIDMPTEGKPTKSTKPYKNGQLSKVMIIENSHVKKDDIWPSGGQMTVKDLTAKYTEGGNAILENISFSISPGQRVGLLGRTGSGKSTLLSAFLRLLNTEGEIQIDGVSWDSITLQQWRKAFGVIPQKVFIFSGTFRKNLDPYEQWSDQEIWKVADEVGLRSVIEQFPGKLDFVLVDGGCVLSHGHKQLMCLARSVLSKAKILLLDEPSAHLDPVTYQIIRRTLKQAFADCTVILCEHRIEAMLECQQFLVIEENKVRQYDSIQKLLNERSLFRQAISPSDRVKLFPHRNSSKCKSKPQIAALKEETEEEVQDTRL

As for `Cc1ccccc1-c1nc(NS(=O)(=O)c2cccc(N)n2)ccc1Cl` [Example 14, 6-Amino-N-(5-chloro-6-(o-tolyl)pyridin-2-yl)pyridine-2-sulfonamide], under setting [1], the Emax was 523% and the EC50 (as a rule, the concentration at which the effect is half-maximal) came out at 1.35 µM.

Turning to `CC1(C(=O)O)CCN(c2cccc(S(=O)(=O)Nc3ccc(C(F)(F)F)c(-c4ccccc4C4CCC4)n3)n2)CC1` [Example 363, 1-(6-(N-(6-(2-cyclobutylphenyl)-5-(trifluoromethyl)pyridin-2-yl)sulfamoyl)pyridin-2-yl)-4-methylpiperidine-4-carboxylic Acid], under setting [1], the Emax came to 616% and the EC50 is 0.705 µM.

For `N#Cc1ccccc1-c1nc(NS(=O)(=O)c2cccc(N)n2)ccc1Cl` [Example 90, 6-amino-N-(5-chloro-6-(2-cyanophenyl)pyridin-2-yl)pyridine-2-sulfonamide], under setting [1], the Emax was 50% and the EC50 was 3.78 µM.

With `CCOC(=O)C1(C)CCN(c2cccc(S(=O)(=O)Nc3ccc(Cl)c(-c4cccc(F)c4C)n3)n2)CC1` [Example 252, ethyl 1-(6-(N-(5-chloro-6-(3-fluoro-2-methylphenyl)pyridin-2-yl)sulfamoyl)pyridin-2-yl)-4-methylpiperidine-4-carboxylate], under setting [1], the Emax is 602% and the EC50 is 2.47 µM.

Regarding `CO[C@H]1CNCC[C@H]1Nc1cccc(S(=O)(=O)Nc2ccc(C(F)(F)F)c(-c3ccccc3C)n2)n1` (racemic) [Example 115, 6-(((3S,4R)-3-methoxypiperidin-4-yl)amino)-N-(6-(o-tolyl)-5-(trifluoromethyl)pyridin-2-yl)pyridine-2-sulfonamide Hydrochloride], under setting [1], the Emax was 192% and the EC50 was found to be 3.81 µM.

Take `Cc1cccc(C)c1-c1nc(NS(=O)(=O)c2cccc(N)n2)ccc1F` [Example 9, 6-amino-N-(6-(2,6-dimethylphenyl)-5-fluoropyridin-2-yl)pyridine-2-sulfonamide]: under setting [1], the Emax worked out at 597% and the EC50 was 1.52 µM.

`CCc1ccccc1-c1nc(NS(=O)(=O)c2cccc(N3CCC[C@@H](C(=O)O)C3)n2)ccc1C(F)(F)F` [Example 369, (R)-1-(6-(N-(6-(2-ethylphenyl)-5-(trifluoromethyl)pyridin-2-yl)sulfamoyl)pyridin-2-yl)piperidine-3-carboxylic Acid]: under setting [1], the Emax came to 962% and the EC50 came to 1.72 µM.

With `Cc1ccccc1-c1nc(NS(=O)(=O)c2cccc(N)n2)ccc1C1CC1` [Example 66, 6-amino-N-(5-cyclopropyl-6-(o-tolyl)pyridin-2-yl)pyridine-2-sulfonamide], under setting [1], the Emax worked out at 215% and the EC50 turned out to be 3.07 µM.

On to `Cc1c(F)cccc1-c1nc(NS(=O)(=O)c2cccc(N3CCC[C@](C)(C(=O)O)C3)n2)ccc1C(F)(F)F` [Example 436, (3S)-1-(6-{[6-(3-fluoro-2-methylphenyl)-5-(trifluoromethyl)pyridin-2-yl]sulfamoyl}pyridin-2-yl)-3-methylpiperidine-3-carboxylic Acid], for which the EC50 under setting [2] amounted to 1.77 µM. The Emax (surface expression Amax) worked out at 438%.

`Cc1ccccc1-c1nc(NS(=O)(=O)c2cccc(N3CCC4(CC3)CC(C(=O)O)C4)n2)ccc1C(F)(F)F` [Example 446, 7-(6-(N-(6-(o-tolyl)-5-(trifluoromethyl)pyridin-2-yl)sulfamoyl)pyridin-2-yl)-7-azaspiro[3.5]nonane-2-carboxylic Acid]: the EC50 under setting [2] came to 2.11 µM. Also, for the setting “surface expression Amax”, the Emax stood at 278%.

Consider `Cc1cc(F)cc(C)c1-c1nc(NS(=O)(=O)c2cccc(N)n2)ccc1Cl` [Example 30, 6-amino-N-(5-chloro-6-(4-fluoro-2,6-dimethylphenyl)pyridin-2-yl)pyridine-2-sulfonamide], for which, under setting [1], the Emax was determined as 421% and the EC50 was determined as 1.7 µM.

As to `COc1ccc(Cl)c(-c2nc(NS(=O)(=O)c3cccc(N4CCC(C)(C(=O)O)CC4)n3)ccc2Cl)c1` [Example 244, 1-(6-(N-(5-chloro-6-(2-chloro-5-methoxyphenyl)pyridin-2-yl)sulfamoyl)pyridin-2-yl)-4-methylpiperidine-4-carboxylic Acid], under setting [1], the Emax was 222% and the EC50 was 3.65 µM.

Take `CC(C)c1ccccc1-c1nc(NS(=O)(=O)c2cccc(N)n2)ccc1Cl` [Example 50, 6-amino-N-(5-chloro-6-(2-isopropylphenyl)pyridin-2-yl)pyridine-2-sulfonamide]: under setting [1], the Emax amounted to 332% and the EC50 was determined as 0.683 µM.

Take `Cc1ccccc1-c1nc(NS(=O)(=O)c2cccc(N)n2)ccc1Br` [Example 23, 6-amino-N-(5-bromo-6-(o-tolyl)pyridin-2-yl)pyridine-2-sulfonamide]: under setting [1], the Emax was determined as 486% and the EC50 came to 1.88 µM.

Take `Cc1ccc(F)cc1-c1nc(NS(=O)(=O)c2cccc(N3C[C@@H]4CC[C@H]3CN4)n2)ccc1C(F)(F)F` [Example 200, 6-((1S,4S)-2,5-diazabicyclo[2.2.2]octan-2-yl)-N-(6-(5-fluoro-2-methylphenyl)-5-(trifluoromethyl)pyridin-2-yl)pyridine-2-sulfonamide Hydrochloride]: under setting [1], the Emax came to 553% and the EC50 is 3.17 µM.

As for `Nc1cccc(S(=O)(=O)Nc2ccc(Cl)c(-c3c(Cl)cccc3C(F)(F)F)n2)n1` [Example 52, 6-amino-N-(5-chloro-6-(2-chloro-6-(trifluoromethyl)phenyl)pyridin-2-yl)pyridine-2-sulfonamide], under setting [1], the Emax stood at 327% and the EC50 was found to be 1.38 µM.

Turning to `Cc1ccc(C(F)(F)F)cc1-c1nc(NS(=O)(=O)c2cccc(N3CCN(C(=O)OC(C)(C)C)CC3)n2)ccc1Cl` [Example 168, tert-butyl 4-(6-(N-(5-chloro-6-(2-methyl-5-(trifluoromethyl)phenyl)pyridin-2-yl)sulfamoyl)pyridin-2-yl)piperazine-1-carboxylate], under setting [1], the Emax came out at 271% and the EC50 worked out at 0.626 µM.

Consider `Cc1ccccc1-c1nc(NS(=O)(=O)c2cccc(N)n2)ccc1F` [Example 70, 6-amino-N-(5-fluoro-6-(o-tolyl)pyridin-2-yl)pyridine-2-sulfonamide], for which, under setting [1], the Emax turned out to be 197% and the EC50 amounted to 2.64 µM.

Turning to `Cc1ccccc1-c1nc(NS(=O)(=O)c2cccc(N3CCC[C@@](C)(C(=O)O)C3)n2)ccc1C` [Example 409, (R)-3-methyl-1-(6-(N-(5-methyl-6-(o-tolyl)pyridin-2-yl)sulfamoyl)pyridin-2-yl)piperidine-3-carboxylic Acid], under setting [2], the EC50 amounted to 1.67 µM. Moreover, where the note is “surface expression Amax”, the Emax turned out to be 330%.

In the case of `CCC1(C(=O)O)CCCN(c2cccc(S(=O)(=O)Nc3ccc(C(F)(F)F)c(-c4ccccc4C)n3)n2)C1` (centres unmarked) [Example 454, 3-ethyl-1-(6-(N-(6-(o-tolyl)-5-(trifluoromethyl)pyridin-2-yl)sulfamoyl)pyridin-2-yl)piperidine-3-carboxylic Acid], under setting [2], the EC50 was found to be 1.7 µM.

As for `Cc1cccc(C)c1-c1nc(NS(=O)(=O)c2cccc(N)n2)c(F)cc1Cl` [Example 95, 6-amino-N-(5-chloro-6-(2,6-dimethylphenyl)-3-fluoropyridin-2-yl)pyridine-2-sulfonamide], under setting [1], the Emax came to 19% and the EC50 was determined as 3.75 µM.

Consider `CCCc1ccccc1-c1nc(NS(=O)(=O)c2cccc(N3CCC[C@](C)(C(=O)O)C3)n2)ccc1C(F)(F)F` [Example 425, (S)-3-methyl-1-(6-(N-(6-(2-propylphenyl)-5-(trifluoromethyl)pyridin-2-yl)sulfamoyl)pyridin-2-yl)piperidine-3-carboxylic Acid], for which the EC50 under setting [2] stood at 1.22 µM.

In the case of `Cc1ccccc1-c1nc(NS(=O)(=O)c2cccc(N3CCN4CC(F)(F)C[C@H]4C3)n2)ccc1C(F)(F)F` [Example 136, (S)-6-(7,7-difluorohexahydropyrrolo[1,2-a]pyrazin-2(1H)-yl)-N-(6-(o-tolyl)-5-(trifluoromethyl)pyridin-2-yl)pyridine-2-sulfonamide], under setting [1], the Emax came to 862% and the EC50 amounted to 1.11 µM.
